Where two headings read alike, the source gives them in different places.
Tests used:
[1] = tested on: PTX mice; test: Serum calcium after single dosing in HP PTX mouse model (Example 1); assay type: in vivo; conditions: PTX mice, single dosing; AZP-3601 20, 40 or 80 μg/kg; PTH (1-34) 200 μg/kg
Excerpt: In FIG. 1, the black line indicates the impact of PTX in mice, resulting in serum calcium levels well below normal levels.

[2] = tested on: normal cynomolgus monkeys; test: Blood calcium after single injection in normal cynomolgus monkeys (Example 5); assay type: in vivo, cynomolgus monkey; conditions: single dose 10 nmole/kg (AZP-3601 42.7 μg/kg, PTH (1-84) 95 μg/kg, PTH (1-34) 42 μg/kg), AZP-3601 also 10.7 μg/kg (2.5 nmole/kg)
Method: To further examine how the potent and sustained biological activity induced by AZP-3601 could translate into potential clinical benefit for […] patients, its activity was examined in normal cynomolgus monkeys, a species much closer to humans and the most relevant for first in human dose-selection. Single injections of AZP-3601 were administered to normal cynomolgus monkeys. […] The dissociation between pharmacokinetic profile and pharmacodynamic effect is due to the short circulating half-life of AZP-3601 as opposed to the prolonged signaling caused by AZP-3601's potent interaction with the R^0 conformation of the PTH1 receptor.
In a second study as illustrated in panel B of FIG. 5, monkeys were injected with a single dose of either natural PTH (1-84) at 95 μg/kg, natural PTH (1-34) at 42 μg/kg or AZP-3601 at 42.7 μg/kg, which were equal doses of 10 nmole/kg, adjusted for the molecular weight of the individual compounds. In addition, a lower dose of 10.7 μg AZP-3601/kg (2.5 nmole/kg) was also tested.

[3] = tested on: TPTX rats; test: Distal femur BMD by qCT in TPTX rats after 14-day treatment at doses that normalize serum calcium (Example 6); assay type: in vivo, rat
Method: To directly compare the effect of daily subcutaneous injection of AZP-3601 to daily subcutaneous injection and continuous infusion of PTH(1-34), dose levels for each regimen that normalized serum calcium levels in TPTX rats were utilized. These doses corresponded to 50 nmoles/kg/day (205 μg/kg/day) for PTH(1-34) injected daily, 3 nmoles/kg/day (12.3 μg/kg/day) for PTH(1-34) continuously infused, and 1 nmole/kg/day (4.2 μg/kg/day) for AZP-3601 injected daily. After 14 days of treatment, femurs were collected and examined for bone mineral density (BMD) by quantitative computed tomography.

[4] = tested on: hypoparathyroid mice; conditions: single sc, AZP-3601 10 to 20 nmol/kg, PTH(1-34) at a higher dose; cited from earlier work
[5] = tested on: patients with HP; conditions: cited from earlier work; for urinary calcium excretion: clinical studies; for control of calcium levels: patients with HP
[6] = tested on: TPTX rats; conditions: rat, in vivo; cited from earlier work
[7] = tested on: patients with HP; conditions: cited from earlier work
[8] = tested on: TPTX rats; test: Serum calcium and phosphate, 28-day daily sc dosing in HP TPTX rat model (Example 2); assay type: in vivo; conditions: once daily sc for 28 days
Method: Thyroid-parathyroidectomized, or TPTX, rats were treated with daily subcutaneous injection of AZP-3601 at doses ranging from 3.8 μg/kg/day to 30.7 μg/kg/day. Treatment was continued for 28 days. […] The increase in calcium accumulated over time (over the first 15 to 21 days), but became more constant thereafter, indicating the development of a steady-state effect (FIG. 2). Due to the cumulative effect, lower doses of AZP-3601 were required to eventually increase blood calcium levels into the normal range as compared to the dose required with a single injection.

[9] = tested on: TPTX rats; test: BMD (DXA) and bone structure (micro-CT) in TPTX rats after repeated daily dosing (Example 7); assay type: in vivo, rat; conditions: once daily sc, AZP-3601 3.8 to 30.7 μg/kg/day, versus vehicle
Method: To examine the effect of repeated dosing with AZP-3601, TPTX rats were treated with daily subcutaneous injections of either vehicle or AZP-3601 with doses ranging from 3.8 to 30.7 μg/kg/day (0.9-7.2 nmole/kg/day). As additional controls, a separate group of TPTX rats received daily injections of natural PTH (1-84), and a group of normal (with intact thyroid and parathyroid glands, or sham) rats were injected with vehicle. […] Both whole femurs and lumbar spine were analyzed using a technique called dual-energy x-ray absorptionametry, or DXA, which measures BMD.

PTH(1-34) (SVSEIQLMHNLGKHLNSMERVEWLRKKLQDVHNF) [natural PTH (1-34)]
effect on serum calcium [1]: transient elevation in serum calcium | effect on blood calcium, second study [2]: only modestly increased blood calcium | femur BMD by quantitative computed tomography, continuous infusion ([3]; 14 days, 3 nmoles/kg/day continuously infused): significant decrease in BMD | femur BMD by quantitative computed tomography, daily injection ([3]; 14 days, PTH(1-34) 50 nmoles/kg/day, AZP-3601 1 nmole/kg/day): significant increase in BMD | dose that normalized serum calcium levels, continuous infusion ([3]; continuously infused): 3 nmol/kg/day | dose that normalized serum calcium levels, daily subcutaneous injection ([3]; injected daily): 50 nmol/kg/day | duration of decreased serum inorganic phosphorus [4]: < 4 h | duration of increased serum calcium [4]: < 8 h

Natpara™: recombinant natural human PTH ((rh)PTH(1-84)), approved adjunct to calcium and vitamin D in HP
urinary calcium excretion [5]: failed to demonstrate reduction of urinary calcium excretion | urinary calcium excretion ([5]; listed as (rh)PTH(1-84)): elevated urinary calcium excretion in many subjects | adverse effects ([5]; human, in vivo): adverse effects such as hyper/hypocalcemia and vasoactive events | half-life ([5]; human, in vivo): short half-life | control of calcium levels [5]: does not control calcium levels for the entire day | control of calcium levels ([5]; listed as (rh)PTH(1-84)): lack of 24-hour control of serum calcium

TransCon™PTH: sustained-release, injectable prodrug formulation of native PTH (1-34), Ascendis Pharma A/S
pharmacokinetic profile [6]: continuous, non-pulsatile, infusion-like pharmacokinetic profile | hypercalciuria after treatment ([7]; Phase 3 trial, 6 months of treatment): a number of patients are still hypercalciuric | mean T-scores ([7]; human, in vivo): decrease in mean T-scores | serum calcium levels ([7]; human, in vivo): provides stable serum calcium levels | mean 24-hour urine calcium levels ([7]; patients with HP): decrease mean 24-hour urine calcium levels

B1: PTH (1-84) (protein, UniProt P01270 32-115, looked up)
Parathyroid hormone: SVSEIQLMHNLGKHLNSMERVEWLRKKLQDVHNFVALGAPLAPRDAGSQRPRKKEDNVLVESHEKSLGEADKADVNVLTKAKSQ
modifications: Parathyroid hormone
notes: natural PTH (1-84), comparator in rats and monkeys
effect on blood phosphate levels [8]: only marginal reductions in blood phosphate levels | effect on serum/blood calcium levels ([8]; AZP-3601 3.8 to 30.7 μg/kg/day): no persistent increase in blood calcium levels | effect on blood calcium, second study [2]: only modestly increased blood calcium | BMD of whole femur and lumbar spine by DXA [9]: statistically significant increase in BMD
